Experiments:
[1] = system: PGE2 in A549 cell culture; assay: Induction of PGE2 in A549 cell culture; assay type: cell-based; conditions: A549 cells; for induction of PGE2 in A549 cell culture at 0.1 μM (fold): 0.1 μM compound; for induction of PGE2 in A549 cell culture at 2.5 μM (fold): 2.5 μM compound
Procedure: This Example provides data on two groups (Table 1 and Table 2) of structural analogues of identified 15-PGDH inhibitors. Data provided is the IC50 of each compound for inhibiting enzymatic activity of recombinant 15-PGDH in an in vitro assay. Recombinant 15-PGDH is human unless otherwise specified. Additionally, the example provides data for selected compounds on induction of PGE2 in A549 cell culture administered 2.5 μM or 0.1 μM of the selected compound.

recombinant 15-PGDH = recombinant 15-PGDH (Homo sapiens (Human), UniProt P15428); assay: Enzyme inhibition of recombinant 15-PGDH, in vitro assay; assay type: biochemical; conditions: recombinant human 15-PGDH; read-out: Enzyme inhibition (IC50)
recombinant 15-PGDH, sequence (P15428 whole entry): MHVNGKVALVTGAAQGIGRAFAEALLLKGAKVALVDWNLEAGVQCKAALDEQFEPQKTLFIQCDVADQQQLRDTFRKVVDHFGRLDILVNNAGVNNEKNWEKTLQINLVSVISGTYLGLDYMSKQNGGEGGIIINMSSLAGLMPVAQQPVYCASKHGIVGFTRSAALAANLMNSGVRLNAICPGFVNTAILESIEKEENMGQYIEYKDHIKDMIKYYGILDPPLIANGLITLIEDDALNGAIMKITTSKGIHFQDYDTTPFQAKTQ

CCCC[S+]([O-])c1cc2nc(-c3ccc(OC)cc3)cc(C(F)(F)F)n2n1 (centres unmarked) [3a]
induction of PGE2 in A549 cell culture at 0.1 μM (fold) [1]: 1.45 fold
induction of PGE2 in A549 cell culture at 2.5 μM (fold) [1]: 2.13 fold

CCCC[S+]([O-])c1cc2nc(-c3ccc(OC)cc3)cc(-c3ccccc3)n2n1 (centres unmarked) [5a]
induction of PGE2 in A549 cell culture at 0.1 μM (fold) [1]: 1.08 fold
induction of PGE2 in A549 cell culture at 2.5 μM (fold) [1]: 1.69 fold

O=C(c1ccc2nc(-c3ccccc3)c(-c3ccccc3)nc2c1)N1CCCCC1 [1b]
induction of PGE2 in A549 cell culture at 0.1 μM (fold) [1]: 1.11 fold
induction of PGE2 in A549 cell culture at 2.5 μM (fold) [1]: 1.87 fold

COc1ccc(-c2cc(C(F)(F)F)n3nc(C(=O)N4CCCCC4)cc3n2)cc1 [1a]
induction of PGE2 in A549 cell culture at 0.1 μM (fold) [1]: 1.29 fold
induction of PGE2 in A549 cell culture at 2.5 μM (fold) [1]: 1.89 fold
IC50 (recombinant 15-PGDH): 24 nM

COc1ccc(-c2cc(C(F)(F)F)n3nc(C(=O)N4CCC(F)CC4)cc3n2)cc1 [15a]
IC50 (recombinant 15-PGDH): 42 nM

O=C(c1ccc2ncc(-c3ccc(F)cc3F)nc2c1)N1CCCCC1 [45b]
IC50 (recombinant 15-PGDH): 4 nM

COc1ccc(-c2cc(-c3ccnc(F)c3)n3nc(C(=O)N4CCCCC4)cc3n2)cc1 [30a]
IC50 (recombinant 15-PGDH): 20 to 100 nM

O=C(c1ccc2nc(-c3ccccc3)c(-c3ccncc3)nc2c1)N1CCCCC1 [34b]
IC50 (recombinant 15-PGDH): 20 nM

COc1ccc(-c2cc(C(F)(F)F)n3nc(C(=O)N4CCC(C)CC4)cc3n2)cc1 [18a]
IC50 (recombinant 15-PGDH): 30.6 nM

From US11718589B2, “Compositions and methods of modulating short-chain dehydrogenase” (CASE WESTERN RESERVE UNIVERSITY, priority 2017, dated 2023)
